# Source: patent publication US7744860B2, “Reduced bioirritant composition” (Minu LLC, priority 1999, dated 2010)
# Where “and” joins values, the source holds several entries; their conditions need not be identical. Identical values can stand only once. Entries after “also recorded” stand apart in the source; their conditions may differ.
# Legend:
# [1] = electroretinogram (ERG) after ascorbic acid administration; format: in vivo, Rats
# Method: The effect of pH neutralized and non-neutralized ascorbic acid administered topically to eyes at various concentrations was determined. Rats were subject to induced corneal neovascularization as previously described and administered pH neutralized and non-neutralized ascorbic acid and saline (control) at the same concentrations as previously described. An electroretinogram (ERG) was performed to evaluate the eye's electrical responses to a flash of light using an electrode placed on the surface of the eye (e.g., cornea) as known to one skilled in the art.
# [2] = test system: corneal neovascularization; assay: silver nitrate cauterization induced corneal neovascularization, topical treatment; format: in vivo, male Long Evans pigmented rats; conditions: for Degree of Corneal Neovascularization, OD / Degree of Corneal Neovascularization, OS / mean inhibition of neovascularization / mean percent of neovascularization relative to total corneal area: topical twice a day for seven days; for Degree of Corneal Neovascularization, OD / Degree of Corneal Neovascularization, OS: individual subjects
# Method: Neovascularization was induced in all eyes using silver nitrate cauterization. The animals were first anesthetized by intraperitoneal injection of a mixture of ketamine hydrochloride (25 mg/kg) with xylazine hydrochloride (5 mg/kg). The cornea was then anesthetized by a drop of 0.5% proparacaine hydrochloride and allowed to dry. One cornea of each animal was cauterized by pressing an applicator stick (diameter of 1.8 mm) coated with 75% silver nitrate/25% potassium nitrate (Arzol Chemical Co., Keen, N.H.) to the central cornea for ten seconds (using a stopwatch) under the operating microscope. Excess silver nitrate was removed by rinsing the eyes with 5 ml balanced salt solution. To increase the reproducibility of the injuries, one investigator cauterized all animals. Following cauterization, the animals were randomly divided into six groups to eliminate any potential bias in the degree of burns within the different groups. Two drops of each drug were applied topically to each cornea immediately following cauterization; treatments were administered two times per day for seven days.
# Group 1 (number of animals (n)=8) received 100 mg/ml pH non-neutralized ascorbic acid. All remaining experimental groups received ascorbic acid neutralized to about pH 7 as previously described in the following concentrations: Group 2 (n=8) received 100 mg/ml (10%^w/v) neutralized ascorbic acid; Group 3 (n=8) received 50 mg/ml (5%^w/v) neutralized ascorbic acid; Group 4 (n=8) received 10 mg/ml (1%^w/v) neutralized ascorbic acid; Group 5 (n=8) received 5 mg/ml neutralized ascorbic acid (0.5%^w/v); Group 6 (n=8) received 1 mg/ml neutralized ascorbic acid (0.1%^w/v); Group 7 (n=8) received 500 μg/ml neutralized ascorbic acid (0.05%^w/v); Group 8 (n=8) received 250 μg/ml neutralized ascorbic acid (0.025%^w/v). Group 9 (n=8) received two drops of saline and served as the control. All concentrations of ascorbic acid were titrated with saline.
# The presence of new vessels (neovascularization) and the extent of new vessel formation was assessed by slit lamp photography and in some embodiments, by histology. Inhibition of vessel proliferation was evaluated by measuring vessel progression from the outer cornea (corneal limbus) into the cornea. As previously described, it will be appreciated that any reduction of new vessel proliferation and/or regression of existing vessels is therapeutic, and that complete inhibition and/or regression is not required, and also that reduction includes regression of existing vessels.
# All animals were anesthetized as described above and their corneas evaluated by slit-lamp microscopy on the third and sixth days. Corneal photographs were taken with ×25 magnification using a camera attached to the slit-lamp microscope (Topcon SL-7E, Tokyo Japan) on the seventh day. Neovascularization was evaluated by an examiner who was blinded as to the treatment groups to minimize the observer bias.
# Corneal neovascularization was assessed by scanning (Cano scan 9900F, Canon, Tokyo Japan) the slit lamp photographs into high resolution digital images. The corneal surface covered with neovascular vessels was measured on the photographs as the percentage of the total area of the cornea. The percentage area of corneal neovascularization was determined by outlining the areas with corneal vessels and comparing these to the total corneal surface using image j software (Wayne Rasband at the Research Services Branch,-National Institute of Mental Health, Bethesda Md.). The area of neovascularization was measured in terms of pixels and its ratio to the entire corneal area was determined as the percentage of corneal neovascularization. The extent of the scar was also evaluated by calculating the percentage of the corneal surface that was covered by the scar. A drawing of corneal blood vessels was made to compare with digital photos and ensure that no vascular area was omitted during calculation of percent area. […]
# [3] = 100 mg/ml, mean ± standard deviation, n = 8
# [4] = 100 mg/ml, listed as pH neutralized ascorbic acid
smiles,measurement,setting,value
"O=C1O[C@H]([C@@H](O)CO)C(O)=C1O [Ascorbic Acid Non pH Neutralized, ascorbic acid, reference compound]",decrease in ERG,"[1]; 1 mg/ml, n=6",no significant decrease in ERG
same,decrease in ERG,"[1]; 10 mg/ml, n=6",no significant decrease in ERG
same,decrease in ERG,"[1]; 100 mg/ml, two eyes, listed as non-pH neutralized ascorbic acid",60% and 70%
same,"ocular findings (retinal detachment, cataracts, vitreous haze, retinal edema)","[1]; 100 mg/ml, listed as non-pH neutralized ascorbic acid",partial retinal detachment
same,"Degree of Corneal Neovascularization, OD",[2]; 100 mg (100 mg/ml),10% and 25% and 20% and 0%
same,"Degree of Corneal Neovascularization, OS",[2]; 100 mg (100 mg/ml),33% and 30% and 22% and 0%
same,mean inhibition of neovascularization,[2]; 100 mg/ml,about 81%
same,mean percent of neovascularization relative to total corneal area,[2]; [3],AVE = 17.5 ± 12.8% (n = 8)
same,mean percent of neovascularization relative to total corneal area,"[2]; 100 mg/ml, mean ± standard deviation, n = 8, listed as ascorbic acid non-pH neutralized",about 19%
same,mean percent of neovascularization relative to total corneal area,"[2]; 100 mg/ml, mean ± standard deviation, n = 8, listed as non-neutralized ascorbic acid",17.5%
same,mean inhibition of neovascularization,"[2]; 100 mg/ml, listed as non-neutralized ascorbic acid",82.5%
"O=C1O[C@H]([C@@H](O)CO)C(O)=C1O [Ascorbic Acid pH Neutralized, ascorbic acid]",decrease in ERG,"[1]; 1 mg/ml, n=6",no significant decrease in ERG
same,decrease in ERG,"[1]; 10 mg/ml, n=6",no significant decrease in ERG
same,decrease in ERG,"[1]; 100 mg/ml, two eyes, listed as pH neutralized ascorbic acid",100%
same,"ocular findings (retinal detachment, cataracts, vitreous haze, retinal edema)",[1]; [4],neither cataracts nor retinal detachment; also recorded: vitreous haze and retinal edema
same,"Degree of Corneal Neovascularization, OD",[2]; 250 μg (250 μg/ml),68% and 69% and 70% and 61%
same,"Degree of Corneal Neovascularization, OS",[2]; 250 μg (250 μg/ml),65% and 63% and 66% and 48%
same,mean inhibition of neovascularization,[2]; 250 μg/ml,about 33%
same,mean percent of neovascularization relative to total corneal area,"[2]; 250 μg/ml, FIG. 2",about 67%
same,mean inhibition of neovascularization,"[2]; 250 μg/ml, listed as neutralized ascorbic acid",differences were not significant
same,"Degree of Corneal Neovascularization, OD",[2]; 500 μg (500 μg/ml),54% and 69% and 70% and 61%
same,"Degree of Corneal Neovascularization, OS",[2]; 500 μg (500 μg/ml),50% and 63% and 66% and 48%
same,mean inhibition of neovascularization,[2]; 500 μg/ml,about 40%
same,mean percent of neovascularization relative to total corneal area,"[2]; 500 μg/ml, mean ± standard deviation, n = 8",mean = 60.1 ± 8.5% (n = 8)
same,mean percent of neovascularization relative to total corneal area,"[2]; 500 μg/ml, mean ± standard deviation, n = 8, listed as ascorbic acid pH neutralized",about 60%
same,mean percent of neovascularization relative to total corneal area,"[2]; 500 μg/ml, mean ± standard deviation, n = 8, listed as neutralized ascorbic acid",60.1%
same,mean inhibition of neovascularization,"[2]; 500 μg/ml, listed as neutralized ascorbic acid",39.9%
same,"Degree of Corneal Neovascularization, OD",[2]; 1 mg (1 mg/ml),49% and 15% and 48% and 5%
same,"Degree of Corneal Neovascularization, OS",[2]; 1 mg (1 mg/ml),47% and 27% and 29% and 17%
same,mean inhibition of neovascularization,[2]; 1 mg/ml,about 69%
same,mean percent of neovascularization relative to total corneal area,"[2]; 1 mg/ml, mean ± standard deviation",mean = 29.6 ± 16.9%
same,mean percent of neovascularization relative to total corneal area,"[2]; 1 mg/ml, mean ± standard deviation, listed as ascorbic acid pH neutralized",about 31%
same,mean inhibition of neovascularization,"[2]; 1 mg/ml, listed as neutralized ascorbic acid",significant inhibition compared to control eyes
same,"Degree of Corneal Neovascularization, OD",[2]; 5 mg (5 mg/ml),20% and 35% and 0% and 60%
same,"Degree of Corneal Neovascularization, OS",[2]; 5 mg (5 mg/ml),60% and 26% and 30% and 0%
same,mean inhibition of neovascularization,[2]; 5 mg/ml,about 70%
same,mean percent of neovascularization relative to total corneal area,"[2]; 5 mg/ml, mean ± standard deviation, n = 8",mean = 28.9 ± 23.1% (n = 8)
same,mean percent of neovascularization relative to total corneal area,"[2]; 5 mg/ml, mean ± standard deviation, n = 8, listed as ascorbic acid pH neutralized",about 30%
same,mean inhibition of neovascularization,"[2]; 5 mg/ml, listed as neutralized ascorbic acid",significant inhibition compared to control eyes
same,"Degree of Corneal Neovascularization, OD",[2]; 10 mg (10 mg/ml),0% and 31% and 20% and 22%
same,"Degree of Corneal Neovascularization, OS",[2]; 10 mg (10 mg/ml),0% and 27% and 15% and 26%
same,mean inhibition of neovascularization,[2]; 10 mg/ml,about 81%
same,mean percent of neovascularization relative to total corneal area,"[2]; 10 mg/ml, mean ± standard deviation, n = 8",mean = 17.6 ± 11.9% (n = 8)
same,mean percent of neovascularization relative to total corneal area,"[2]; 10 mg/ml, mean ± standard deviation, n = 8, listed as ascorbic acid pH neutralized",about 19%
same,mean inhibition of neovascularization,"[2]; 10 mg/ml, listed as neutralized ascorbic acid",significant inhibition compared to control eyes
same,"Degree of Corneal Neovascularization, OD",[2]; 50 mg (50 mg/ml),10% and 15% and 32% and 3%
same,"Degree of Corneal Neovascularization, OS",[2]; 50 mg (50 mg/ml),5% and 35% and 22% and 0%
same,mean inhibition of neovascularization,[2]; 50 mg/ml,about 83.5%
same,mean percent of neovascularization relative to total corneal area,"[2]; 50 mg/ml, mean ± standard deviation, n = 8",mean = 15.2 ± 13.3% (n = 8)
same,mean percent of neovascularization relative to total corneal area,"[2]; 50 mg/ml, mean ± standard deviation, n = 8, listed as ascorbic acid pH neutralized",about 16.5%
same,mean inhibition of neovascularization,"[2]; 50 mg/ml, listed as neutralized ascorbic acid",significant inhibition compared to control eyes
same,"Degree of Corneal Neovascularization, OD",[2]; 100 mg (100 mg/ml),0% and 31% and 15% and 28%
same,"Degree of Corneal Neovascularization, OS",[2]; 100 mg (100 mg/ml),54% and 5% and 3% and 0%
same,mean inhibition of neovascularization,[2]; 100 mg/ml,about 82%
same,mean percent of neovascularization relative to total corneal area,[2]; [3],AVE = 17.0 ± 19.3% (n = 8)
same,mean percent of neovascularization relative to total corneal area,"[2]; 100 mg/ml, mean ± standard deviation, n = 8, listed as ascorbic acid pH neutralized",about 18%
same,mean percent of neovascularization relative to total corneal area,"[2]; 100 mg/ml, mean ± standard deviation, n = 8, listed as pH neutralized ascorbic acid",17.0%
same,mean inhibition of neovascularization,[2]; [4],83.0%
same,inhibition of corneal neovascularization,[2]; concentrations ranging from 100 mg/ml to 500 μg/ml,significantly inhibited corneal neovascularization
